# Values of other authors as cited in patent US20050175694A1, “Long acting compositions comprising zidovudine and lamivudine” (priority 2002, published 2005).
# Conditions: in vivo
structure (smiles),measurement,value
Nc1ccn([C@@H]2CS[C@H](CO)O2)c(=O)n1 [lamivudine],oral bioavailability,86%
Cc1cn([C@H]2C[C@H](N=[N+]=[N-])[C@@H](CO)O2)c(=O)[nH]c1=O [zidovudine],serum half-life,1.1 h
same,oral bioavailability,60%
